Test results published in US11660310B2, “Low dose combination CDA substrate drug/cedazuridine with extended administration” (Otsuka Pharmaceutical Co., Ltd., priority 2018, dated 2023).

Columns and labels:
[1] = test system: sickle cell disease model; settings: sickle cell disease model in baboons; Am. J. Hematol. 1985; cited from earlier work
[2] = clinical; settings: human, in vivo, iv, 20 mg/m2, 5-Days total (AUClast) IV

AUC(0-t) [2] [ng·h/mL] | SMILES | effect on the potency of decitabine [1]
 | O=C1NC(O)CCN1[C@@H]1O[C@H](CO)[C@@H](O)[C@H]1O (some centres unmarked) [Tetrahydrouridine] | improve the potency of decitabine
852 | Nc1ncn([C@H]2C[C@H](O)[C@@H](CO)O2)c(=O)n1 [decitabine, 5-aza-2′-deoxycytidine] | 
